Test results: PMC8424644, “Thermodynamic Stability and Speciation of Ga(III) and Zr(IV) Complexes with High-Denticity Hydroxamate Chelators” (Inorganic Chemistry, 2021)

What was measured:
[1] = pZr calculation (ligand sequestering ability); assay type: physicochemical; settings: for pZr: pZr = −log[Zr(IV)free], pH 7.4, cL = 10 μM, cZr(IV) = 1 μM
Excerpt: Despite a large variety of PET chelators synthesized and tested in order to provide strong coordination of Ga(III) and Zr(IV) in vivo, until now it is has been hard to avoid the release of these metal ions in the body. Here we report two new Ga(III) and Zr(IV) hydroxamate chelators, designed to achieve an efficient sequestering of these metal ions but also to understand how the cyclization and the introduction of an additional hydroxamate group influences the stability of Zr(IV) complexes. Therefore, it is important to evaluate and compare the Ga(III)- and Zr(IV)-sequestering abilities of H3L1 and H4L2 with those of other chelators. However, the direct comparison of the stability constants of metal complexes is not straightforward, and other tools taking into account all the physicochemical properties of the ligands, i.e. their denticity, coordination modes, and acid–base properties, should be used.[52] In order to reliably compare the chelating abilities of H3L1 and H4L2 toward Ga(III) and Zr(IV) ions, the pM values were calculated. pFe was originally introduced by Raymond for the comparison of iron-siderophore systems;[53] pGa = −log[Ga(III)free] and pZr = −log[Zr(IV)free] were calculated at pH 7.4 with cL = 10 μM and cGa(III)/Zr(IV) = 1 μM (Table 2).

[2] = pFe calculation (ligand sequestering ability); assay type: physicochemical; settings: pH=7.4, cL=10 μM, metal 1 μM
Excerpt: Despite a large variety of PET chelators synthesized and tested in order to provide strong coordination of Ga(III) and Zr(IV) in vivo, until now it is has been hard to avoid the release of these metal ions in the body. Here we report two new Ga(III) and Zr(IV) hydroxamate chelators, designed to achieve an efficient sequestering of these metal ions but also to understand how the cyclization and the introduction of an additional hydroxamate group influences the stability of Zr(IV) complexes. Therefore, it is important to evaluate and compare the Ga(III)- and Zr(IV)-sequestering abilities of […] and […] with those of other chelators. […] page 15: 100 100 [ZrL4]+ [ZrL3]+ [ZrL4H ] -1 80 [ZrL3H ] 80 2+ -1 [ZrHL4] […] Experimental section. Ligands' sequestering ability Table S3. pFe values with various synthetic and biological chelators a Ligand pFe Chelating groups and ligands geometry […] 24.3 3 hydroxamate groups in a cyclic arrangement […] 23.3 4 hydroxamate groups in a linear arrangement […] 26.9 3 hydroxamate groups in a cyclic arrangement […] 23.61 3 hydroxamate groups in a linear arrangement […] DFOE 27.73 3 hydroxamate groups in a cyclic arrangement […] protonation and stability constants given in original publications; the hydrolysis constants of Fe(III) ions were taken from the literature14 and are given in the experimental section 15 (also on this page, place not known: […]

With `O=C1CCCN(O)C(=O)CCCNC(=O)CCCN(O)C(=O)CCCNC(=O)CCCN(O)C(=O)CCCN1` [H3L1, 1,11,21-Trihydroxy-1,6,11,16,21,26-hexaazacyclotriacontane-2,7,12,17,22,27-hexaone] the pZr [1] was 32.4 and the pFe [2] was 24.3.

In the case of `N[C@H]1CCCCNC(=O)CCCN(O)C(=O)CCCNC(=O)CCCN(O)C(=O)CCCNC(=O)CCCN(O)C(=O)CCCNC(=O)CCCN(O)C(=O)CCCNC1=O` [H4L2, (S)-43-Amino-6,16,26,36-tetrahydroxy-1,6,11,16,21,26,31,36,41-nonaazacycloheptatetracontane-2,7,12,17,22,27,32,37,42-nonaone], the “pZr higher than the values for Zr(IV)-DFOB and Zr(IV)-H3L1” value [1] is reported as over 4 units, the pZr [1] is reported as 37.0 and the pFe [2] is reported as 23.3.
